Results from patent publication US9499565B2 (BEIJING XINTIANYU TECHNOLOGY DEVELOPMENT CO., LTD., priority 2012, dated 2016).

Assay: Long-period stability test of powder injections
Format: physicochemical
Settings: placed at room temperature for 28 months
Procedure: All contents and purities in the present invention are determined using high performance liquid chromatography (HPLC), and chromatography conditions are: filler: octadecylsilane chemically bonded silica; mobile phase: 0.005 mol/L tetrabutyl ammonium hydroxide-acetonitrile (70:30) with pH of 5.0 adjusted by acetic acid; flow rate: 1.5 mL per minute; detection wavelength: 230 nm. The number of theoretical plates should not be less than 3500, as calculated according to sulbactam peak, the separation degree of […] peak and sulbactam peak should meet the requirements, and before official HPLC determination, the precision, accuracy, linearity and range of each specific to-be-quantified substance are also required to be subjected to methodology validation.

In the case of “cocrystal of piperacillin sodium and sulbactam sodium [cocrystal A]”, the “content of piperacillin sodium” value is reported as “higher than 96.5%”, the “content of sulbactam sodium” value is reported as “higher than 96.5%” and the “total content of related substances” value is reported as no more than 2%.
